Source: paper PMC5564600 (Oncotarget, 2017)

Assays:
Assay in all cases: biochemical
Format in all cases: binding
panel of 442 kinases [1] = target: T1, panel of 442 kinases (Homo sapiens, UniProt Q9H093); conditions: kinase SNARK; for remaining activity at 1 µM: read-out: SNARK (% of control at 1 µM)
T1 construct: purchased Ambit Biosciences (scanMAXX KINOMEscan)
T1 sequence (Q9H093 1-628): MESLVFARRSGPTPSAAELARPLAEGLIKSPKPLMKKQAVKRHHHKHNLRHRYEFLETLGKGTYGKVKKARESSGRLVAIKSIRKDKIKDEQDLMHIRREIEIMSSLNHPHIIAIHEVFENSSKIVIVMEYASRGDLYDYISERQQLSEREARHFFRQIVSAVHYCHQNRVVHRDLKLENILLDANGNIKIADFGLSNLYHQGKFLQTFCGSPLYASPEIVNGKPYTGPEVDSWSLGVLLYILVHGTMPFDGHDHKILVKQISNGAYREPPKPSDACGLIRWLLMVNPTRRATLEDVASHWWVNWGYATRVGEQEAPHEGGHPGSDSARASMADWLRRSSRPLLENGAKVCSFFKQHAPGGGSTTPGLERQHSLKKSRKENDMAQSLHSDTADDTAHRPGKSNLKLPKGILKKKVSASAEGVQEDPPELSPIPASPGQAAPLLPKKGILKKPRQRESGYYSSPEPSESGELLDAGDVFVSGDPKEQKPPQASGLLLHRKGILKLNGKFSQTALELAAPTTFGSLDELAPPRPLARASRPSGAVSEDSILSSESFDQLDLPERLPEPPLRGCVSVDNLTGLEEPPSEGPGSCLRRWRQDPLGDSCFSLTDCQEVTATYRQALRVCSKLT

panel of 442 kinases [2] = target: T2, panel of 442 kinases (Homo sapiens, UniProt P36888); conditions: FLT3; for remaining activity at 1 µM: read-out: % of control at 1 µM
T2 construct: purchased Ambit Biosciences (scanMAXX KINOMEscan)
T2 sequence (P36888 27-993): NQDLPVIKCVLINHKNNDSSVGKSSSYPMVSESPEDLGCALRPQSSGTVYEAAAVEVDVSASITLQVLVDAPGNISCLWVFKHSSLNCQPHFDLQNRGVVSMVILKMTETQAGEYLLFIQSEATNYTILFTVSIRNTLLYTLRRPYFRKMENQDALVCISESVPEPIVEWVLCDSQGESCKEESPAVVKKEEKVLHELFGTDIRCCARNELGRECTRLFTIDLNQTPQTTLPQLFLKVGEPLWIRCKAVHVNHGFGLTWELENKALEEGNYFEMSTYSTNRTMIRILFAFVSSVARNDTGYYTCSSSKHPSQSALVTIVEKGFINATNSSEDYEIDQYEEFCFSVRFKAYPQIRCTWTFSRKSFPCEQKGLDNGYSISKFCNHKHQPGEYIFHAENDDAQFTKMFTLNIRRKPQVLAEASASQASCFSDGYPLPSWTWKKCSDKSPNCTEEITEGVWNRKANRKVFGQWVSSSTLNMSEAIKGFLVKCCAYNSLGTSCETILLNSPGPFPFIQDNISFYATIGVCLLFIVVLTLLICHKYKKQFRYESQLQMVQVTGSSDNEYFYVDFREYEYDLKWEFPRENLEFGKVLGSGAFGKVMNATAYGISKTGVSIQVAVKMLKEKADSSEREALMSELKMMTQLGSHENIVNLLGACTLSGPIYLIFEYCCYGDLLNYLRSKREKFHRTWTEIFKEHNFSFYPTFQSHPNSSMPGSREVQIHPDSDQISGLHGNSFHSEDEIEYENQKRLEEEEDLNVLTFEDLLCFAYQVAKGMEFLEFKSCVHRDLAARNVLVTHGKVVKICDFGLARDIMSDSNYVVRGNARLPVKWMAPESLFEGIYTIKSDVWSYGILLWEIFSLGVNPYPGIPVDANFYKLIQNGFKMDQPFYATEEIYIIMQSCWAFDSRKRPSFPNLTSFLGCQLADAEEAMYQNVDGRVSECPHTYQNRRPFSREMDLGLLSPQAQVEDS

panel of 442 kinases [3] = target: T3, panel of 442 kinases (Homo sapiens, UniProt P68400); conditions: CSNK2A1; for remaining activity at 1 µM: read-out: % of control at 1 µM
T3 construct: purchased Ambit Biosciences (scanMAXX KINOMEscan)
T3 sequence (P68400 whole entry): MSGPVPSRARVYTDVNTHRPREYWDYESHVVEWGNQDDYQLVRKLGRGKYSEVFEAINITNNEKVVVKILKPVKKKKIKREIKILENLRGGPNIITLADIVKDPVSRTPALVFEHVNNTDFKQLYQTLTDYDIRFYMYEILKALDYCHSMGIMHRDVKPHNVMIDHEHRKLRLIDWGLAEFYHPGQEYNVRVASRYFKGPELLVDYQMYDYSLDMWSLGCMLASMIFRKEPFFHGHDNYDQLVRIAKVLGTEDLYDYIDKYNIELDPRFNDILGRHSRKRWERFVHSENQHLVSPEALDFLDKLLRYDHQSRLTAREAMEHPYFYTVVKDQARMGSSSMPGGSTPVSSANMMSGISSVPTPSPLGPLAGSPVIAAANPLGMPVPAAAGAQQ

panel of 442 kinases [4] = target: T4, panel of 442 kinases (Homo sapiens, UniProt Q8IY84); conditions: kinase NIM1; for remaining activity at 1 µM: read-out: % of control at 1 µM
T4 construct: purchased Ambit Biosciences (scanMAXX KINOMEscan)
T4 sequence (Q8IY84 whole entry): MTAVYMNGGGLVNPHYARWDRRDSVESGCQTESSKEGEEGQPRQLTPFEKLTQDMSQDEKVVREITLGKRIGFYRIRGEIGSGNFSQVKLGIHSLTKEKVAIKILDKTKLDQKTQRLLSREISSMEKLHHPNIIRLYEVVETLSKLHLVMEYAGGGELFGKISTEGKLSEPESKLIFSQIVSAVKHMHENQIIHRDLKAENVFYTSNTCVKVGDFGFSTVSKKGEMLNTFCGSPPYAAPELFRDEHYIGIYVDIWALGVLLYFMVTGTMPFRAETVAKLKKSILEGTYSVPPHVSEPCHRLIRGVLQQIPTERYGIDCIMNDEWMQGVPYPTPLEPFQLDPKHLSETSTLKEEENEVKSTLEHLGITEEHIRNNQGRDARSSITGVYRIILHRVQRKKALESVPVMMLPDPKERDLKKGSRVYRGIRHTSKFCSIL

panel of 442 kinases [5] = target: T5, panel of 442 kinases (Homo sapiens, UniProt O14578); conditions: CIT; for remaining activity at 1 µM: read-out: % of control at 1 µM
T5 construct: purchased Ambit Biosciences (scanMAXX KINOMEscan)
T5 sequence (O14578 whole entry): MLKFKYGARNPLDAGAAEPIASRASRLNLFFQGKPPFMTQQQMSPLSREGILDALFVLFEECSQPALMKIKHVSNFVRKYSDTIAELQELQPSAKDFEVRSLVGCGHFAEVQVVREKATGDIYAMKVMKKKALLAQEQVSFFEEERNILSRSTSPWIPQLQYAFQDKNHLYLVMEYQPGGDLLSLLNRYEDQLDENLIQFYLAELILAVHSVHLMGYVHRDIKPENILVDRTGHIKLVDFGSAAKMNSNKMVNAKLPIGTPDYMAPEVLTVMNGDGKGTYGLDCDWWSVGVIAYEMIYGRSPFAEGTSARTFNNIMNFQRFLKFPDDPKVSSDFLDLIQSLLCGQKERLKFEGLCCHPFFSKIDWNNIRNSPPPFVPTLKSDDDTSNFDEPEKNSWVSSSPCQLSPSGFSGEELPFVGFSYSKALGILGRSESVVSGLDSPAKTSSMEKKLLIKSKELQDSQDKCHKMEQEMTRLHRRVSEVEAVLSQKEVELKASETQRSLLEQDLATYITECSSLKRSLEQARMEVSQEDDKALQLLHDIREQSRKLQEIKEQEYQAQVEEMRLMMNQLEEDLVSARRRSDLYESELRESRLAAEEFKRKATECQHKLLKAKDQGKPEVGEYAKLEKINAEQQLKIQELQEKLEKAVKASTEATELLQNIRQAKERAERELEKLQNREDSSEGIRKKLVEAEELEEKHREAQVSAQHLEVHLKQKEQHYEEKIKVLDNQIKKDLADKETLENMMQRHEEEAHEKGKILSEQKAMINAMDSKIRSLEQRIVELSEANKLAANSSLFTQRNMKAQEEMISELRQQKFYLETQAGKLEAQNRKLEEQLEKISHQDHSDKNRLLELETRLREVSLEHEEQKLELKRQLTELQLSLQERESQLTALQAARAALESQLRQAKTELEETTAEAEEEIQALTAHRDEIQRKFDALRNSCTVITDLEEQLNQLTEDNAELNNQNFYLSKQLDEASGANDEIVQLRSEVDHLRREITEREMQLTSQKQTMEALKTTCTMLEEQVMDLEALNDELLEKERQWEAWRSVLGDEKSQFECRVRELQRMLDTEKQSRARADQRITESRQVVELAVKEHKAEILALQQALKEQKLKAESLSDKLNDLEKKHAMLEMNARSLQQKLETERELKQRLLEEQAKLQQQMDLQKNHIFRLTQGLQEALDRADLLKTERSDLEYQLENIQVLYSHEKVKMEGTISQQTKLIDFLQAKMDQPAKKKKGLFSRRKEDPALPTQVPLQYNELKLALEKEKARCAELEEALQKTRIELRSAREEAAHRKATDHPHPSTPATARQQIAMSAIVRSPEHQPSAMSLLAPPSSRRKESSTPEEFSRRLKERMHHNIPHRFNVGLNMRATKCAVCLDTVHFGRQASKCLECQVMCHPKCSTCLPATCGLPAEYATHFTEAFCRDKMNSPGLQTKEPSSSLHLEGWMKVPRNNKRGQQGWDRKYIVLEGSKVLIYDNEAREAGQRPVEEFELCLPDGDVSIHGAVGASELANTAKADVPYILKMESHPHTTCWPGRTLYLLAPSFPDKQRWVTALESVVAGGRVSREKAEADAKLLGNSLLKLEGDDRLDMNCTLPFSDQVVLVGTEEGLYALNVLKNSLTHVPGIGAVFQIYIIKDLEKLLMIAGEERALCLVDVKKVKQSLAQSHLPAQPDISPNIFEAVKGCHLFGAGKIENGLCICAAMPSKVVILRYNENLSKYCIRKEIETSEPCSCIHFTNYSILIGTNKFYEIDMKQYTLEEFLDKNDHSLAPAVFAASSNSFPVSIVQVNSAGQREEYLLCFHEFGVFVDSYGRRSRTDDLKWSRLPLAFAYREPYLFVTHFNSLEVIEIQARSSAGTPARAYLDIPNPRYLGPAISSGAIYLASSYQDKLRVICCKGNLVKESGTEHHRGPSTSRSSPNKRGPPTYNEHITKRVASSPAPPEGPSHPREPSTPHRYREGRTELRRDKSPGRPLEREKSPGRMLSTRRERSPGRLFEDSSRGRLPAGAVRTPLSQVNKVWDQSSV

[6] = 10 µM, read-out: % of control at 10 µM

| SMILES | remaining activity at 1 µM (panel of 442 kinases [1]) [%] | remaining activity at 10 µM (panel of 442 kinases [1]; 10 µM, read-out: SNARK (% of control at 10 µM)) [%] | remaining activity at 1 µM (panel of 442 kinases [2]) [%] | remaining activity at 10 µM (panel of 442 kinases [2]; [6]) [%] | remaining activity at 1 µM (panel of 442 kinases [3]) [%] | remaining activity at 10 µM (panel of 442 kinases [3]; [6]) [%] | remaining activity at 1 µM (panel of 442 kinases [4]) [%] | remaining activity at 10 µM (panel of 442 kinases [4]; [6]) [%] | remaining activity at 1 µM (panel of 442 kinases [5]) [%] | remaining activity at 10 µM (panel of 442 kinases [5]; [6]) [%] |
| --- | --- | --- | --- | --- | --- | --- | --- | --- | --- | --- |
| Nc1cc(C(F)(F)F)c(-c2cc(N3CCOCC3)nc(N3CCOCC3)n2)cn1 [Buparlisib] | 100 | 100 | 90 | 81 | 91 | 100 | 89 | 86 | 100 | 100 |
| Cn1c(=O)n(-c2ccc(C(C)(C)C#N)cc2)c2c3cc(-c4cnc5ccccc5c4)ccc3ncc21 [Dactolisib, 2-methyl-2-[4-(3-methyl-2-oxo-8-quinolin-3-yl-2,3-dihydroimidazo[4,5-c]quinolin-1-yl)-phenyl] propionitrile] | 34 | – | 67 | – | 64 | – | 100 | – | 65 | – |
| COc1ncc(-c2ccc3nccc(-c4ccnnc4)c3c2)cc1NS(=O)(=O)c1ccc(F)cc1F [Omipalisib] | 100 | – | 100 | – | 100 | – | 100 | – | 100 | – |
| FC(F)c1nc2ccccc2n1-c1nc(N2CCOCC2)nc(N2CCOCC2)n1 [ZSTK474, 2-(difluoromethyl)-1-[4,6-di(4-morpholinyl)-1,3,5-triazin-2-yl]-1H-benzimidazole] | 100 | – | 100 | – | 90 | – | 100 | – | 100 | – |
